Source: publication PMC4216111, “The Bile Acid-Sensitive Ion Channel (BASIC) Is Activated by Alterations of Its Membrane Environment” (PLoS ONE, 2014)
Where two headings read alike, the source gives them in different places.

Legend:
mouse BASIC [1] = assay: Two-electrode voltage clamp, oocytes expressing mouse BASIC
[2] = Solubility in bath solution; type: physicochemical; details: read-out: solubility limit
rat BASIC [3] = target: T1, rat BASIC (Rattus norvegicus, UniProt Q9R0W5); assay: Two-electrode voltage clamp, Xenopus laevis oocytes expressing rat BASIC; details: for IC50: read-out: IC50 of BASIC inhibition
T1 sequence (Q9R0W5 1-495): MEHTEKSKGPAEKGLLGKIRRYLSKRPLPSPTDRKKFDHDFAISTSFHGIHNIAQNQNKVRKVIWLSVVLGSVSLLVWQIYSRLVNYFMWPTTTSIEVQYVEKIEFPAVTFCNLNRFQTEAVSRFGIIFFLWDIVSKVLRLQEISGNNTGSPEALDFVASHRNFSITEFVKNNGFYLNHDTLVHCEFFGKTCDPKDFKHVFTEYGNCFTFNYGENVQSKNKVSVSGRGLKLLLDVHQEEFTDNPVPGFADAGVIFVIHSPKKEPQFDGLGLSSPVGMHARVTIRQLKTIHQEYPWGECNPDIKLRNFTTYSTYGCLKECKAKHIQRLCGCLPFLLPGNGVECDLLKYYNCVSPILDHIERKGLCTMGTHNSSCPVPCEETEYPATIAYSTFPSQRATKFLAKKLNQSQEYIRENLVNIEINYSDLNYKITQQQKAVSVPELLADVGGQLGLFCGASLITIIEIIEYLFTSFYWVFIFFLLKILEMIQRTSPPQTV

human BASIC = tested on: human BASIC; parameters: method as in PMID 21828194; details: cited from earlier work
mouse BASIC [4] = tested on: T2, mouse BASIC; parameters: method as in PMID 21828194; details: cited from earlier work
T2 construct: expressed in transfected cells; host or cells: Xenopus laevis oocytes injected with cRNA

rat BASIC [5] = target: T1, rat BASIC; parameters: expressed in transfected cells; host or cells: Xenopus laevis oocytes injected with cRNA; details: cited from earlier work
non-injected oocytes = assay: Two-electrode voltage clamp, non-injected control oocytes
[6] = tested on: Hydra Na^+ Channel (HyNaC) 2/3/5; assay: Two-electrode voltage clamp, oocytes expressing HyNaC2/3/5; type: cell-based; details: 400 µM SDS, 500 µM NL, 100 µM Triton-X 100, 5 µM RFamide I
rat ASIC1a = assay: Two-electrode voltage clamp, oocytes expressing rat ASIC1a; details: 400 µM SDS, 500 µM NL, 100 µM Triton-X 100, 2 mM UDCA
[7] = tested on: rASIC1a rBASIC loop 1–2, rASIC1a rBASIC loop 2–3; assay: Two-electrode voltage clamp, chimeras rASIC1a rBASIC loop 1–2 and loop 2–3; type: cell-based, rat; details: 2 mM UDCA
Description: (§1) Clones for rat BASIC (accession No. NM_022227), mouse BASIC (accession No. NM_021370), rat ASIC1a (accession No. NM_024154) and HyNaC 2, 3 and 5 (accession No. AM393878, AM393880 and FN257513) were described previously, [15], [16]. Chimeras between BASIC and ASIC1a were generated by overlap PCR and PCR fragments were cloned into the expression vector pRSSP6009 [15] using the In-Fusion cloning kit (Invitrogen, Germany). Sequences were confirmed by sequencing. Plasmid DNAs were linearized using the restriction endonucleases MluI or NaeI. cRNA was synthesized from linearized plasmids using the SP6 mMessage mMachine kit (Ambion, USA).
(§2) Chemicals were purchased from Sigma or Merck.

rASIC1a-rBASIC-loop = assay: Two-electrode voltage clamp, chimera rASIC1a-rBASIC-loop; type: cell-based, rat; details: 2 mM UDCA
Description: as §1, §2

[8] = tested on: rASIC1a-rBASIC-loop 1, - 2 and -3; assay: Two-electrode voltage clamp, chimeras rASIC1a-rBASIC-loop 1, -2 and -3; type: cell-based, rat; details: 2 mM UDCA
Description: as §1, §2

[9] = tested on: rASIC1a-rBASIC-TM1, -TM2 or -TM; assay: Two-electrode voltage clamp, chimeras rASIC1a-rBASIC-TM1, -TM2 or -TM; type: cell-based, rat; details: 2 mM UDCA
Description: as §1, §2

rBASIC-rASIC1a-loop = assay: Two-electrode voltage clamp, chimera rBASIC-rASIC1a-loop; type: cell-based, rat; details: 2 mM UDCA
Description: as §1, §2

[10] = 2 mM UDCA, 500 µM CPZ, 10 mM TNP, 100 µM Triton-X 100, 500 µM NL, 400 µM SDS, n = 8
[11] = 400 µM SDS, 500 µM N-lauroylsarcosine, 100 µM Triton-X 100, n = 7
[12] = 400 µM SDS, 500 µM NL, 100 µM Triton-X 100, n = 8

With `CN(C)CCCN1c2ccccc2Sc2ccc(Cl)cc21` [CPZ, chlorpromazine] the “activity of mouse BASIC, normalized to the amiloride-sensitive current” value (“activity of mouse BASIC, normalized” below) (mouse BASIC [1]; [10]) was 0.95 fold, the solubility [2] was at most 500 µM and the “decrease of the response of BASIC to 2 mM UDCA” value (rat BASIC [3]; 0.5 mM CPZ co-applied with 2 mM UDCA) was 2.0 fold.

For `O=C(O)c1ccccc1Nc1cccc(C(F)(F)F)c1` [FFA, flufenamic acid], the “activation of human BASIC” value (human BASIC) is given as “activated”, the “effect on mouse BASIC” value (mouse BASIC [4]) is given as “not affected” and the “activation of rat BASIC” value (rat BASIC [5]) is given as “activated”.

With `[Gd+3]` [Gd^3+, gadolinium] the “response of non-injected control oocytes” value (non-injected oocytes) was “did not respond”, the “effect on UDCA-dependent activation of BASIC” value (rat BASIC [3]; 100 µM Gd^3+ co-applied with 2 mM UDCA) was “completely abolished” and the IC50 (rat BASIC [3]; in the absence of UDCA (resting state), n = 8) was 102 ± 34 µM. For the same compound, the IC50 (rat BASIC [3]; in the presence of 2 mM UDCA, n = 8) was 19 ± 7 µM.

In the case of `CCCCCCCCCCCC(=O)N(C)CC(=O)O` [NL, N-lauroylsarcosine], the “current in un-injected oocytes” value (non-injected oocytes; [11]) is reported as 35±0.8 nA, the “activity of mouse BASIC, normalized” value (mouse BASIC [1]; [10]) is reported as 1.5 fold and the “activation of HyNaC 2/3/5” value [6] is reported as “not activated”. The “activation of ASIC1a” value (rat ASIC1a) was “not activated”, the “increase of the low-activity (DIMI-sensitive) BASIC currents” value (“increase of the low-activity” for short) (rat BASIC [3]; [12]) was 3 fold and the “effect on currents when applied in the presence of diminazene” value (“effect on currents when applied” for short) (rat BASIC [3]; co-applied with diminazene) was “did not increase currents”.

With `CCCCCCCCCCCCOS(=O)(=O)[O-].[Na+]` [SDS] the “current in un-injected oocytes” value (non-injected oocytes; [11]) was 34±0.6 nA, the “activity of mouse BASIC, normalized” value (mouse BASIC [1]; [10]) was 1.5 fold and the “activation of HyNaC 2/3/5” value [6] was “not activated”. For the same compound, the “activation of ASIC1a” value (rat ASIC1a) was “not activated”, the “increase of the low-activity” value (rat BASIC [3]; [12]) was 2 fold and the “effect on currents when applied” value (rat BASIC [3]; co-applied with diminazene) was “did not increase currents”.

With `C[C@H](CCC(=O)NCCS(=O)(=O)O)[C@H]1CC[C@H]2[C@@H]3[C@@H](O)C[C@@H]4C[C@H](O)CC[C@]4(C)[C@H]3CC[C@]12C` [UDCA, tauroursodeoxycholic acid] the “activity of mouse BASIC, normalized” value (mouse BASIC [1]; [10]) was 1.3 fold, the “activation by UDCA of chimeras loop 1–2 and loop 2–3” value [7] was “weakly activated by UDCA” and the “UDCA sensitivity of chimera rASIC1a-rBASIC-loop” value (rASIC1a-rBASIC-loop) was “weakly sensitive to UDCA”. For the same compound, the “response to UDCA of chimeras rASIC1a-rBASIC-loop 1, -2 and -3” value [8] was “responded weakly to UDCA”, the “activation of ASIC1a” value (rat ASIC1a) was “not activate ASIC1a” and the “activation by UDCA of chimeras rASIC1a-rBASIC-TM1, -TM2, -TM” value [9] was “activated by UDCA”. For the same compound, the EC50 (rat BASIC [3]) was 2700 ± 60 µM, the “activation of BASIC” value (rat BASIC [3]; 2 mM UDCA) was “strongly activated BASIC” and the “maximum current at 5 mM UDCA” value (rat BASIC [3]; 5 mM UDCA, n = 10) was 23.8±2.4 µA. For the same compound, the “response to UDCA of chimera rBASIC-rASIC1a-loop compared to removal of divalent cations” value (rBASIC-rASIC1a-loop) was “extremely weak”.

In the case of `CC(C)CCC[C@@H](C)[C@H]1CC[C@H]2[C@@H]3CC=C4C[C@@H](O)CC[C@]4(C)[C@H]3CC[C@]12C` [cholesterol], the “effect of cholesterol application on rBASIC dependent current” value (rat BASIC [3]; 2 mM MβCD-balanced water-soluble cholesterol, 10 sec) is reported as “did not affect the rBASIC dependent current”.

In the case of `N=C(N)c1ccc(/N=N/Nc2ccc(C(=N)N)cc2)cc1` [diminazene], the “effect of diminazene on BASIC currents” value (rat BASIC [3]; 100 µM DIMI alone or together with SDS, NL or Triton-X 100) is reported as “inhibited BASIC currents” and the “DIMI-sensitive current in the absence of stimulatory substances” value (rat BASIC [3]; n = 8) is reported as 0.25±0.03 µA.

For MβCD, the “effect of cholesterol removal on rBASIC activity” value (rat BASIC [3]; 20 mM MβCD, approximately 2 h, control, −Ca^2+ and 2 mM UDCA) was “does not influence rBASIC activity”.

For Triton-X 100, the “current in un-injected oocytes” value (non-injected oocytes) was 35±0.8 nA, the “activity of mouse BASIC, normalized” value (mouse BASIC [1]) was 1.2 fold and the “activation of HyNaC 2/3/5” value [6] was “not activated”. For the same compound, the “activation of ASIC1a” value (rat ASIC1a) was “not activated”, the “effect on currents when applied” value (rat BASIC [3]) was “inhibited by diminazene” and the “increase of the low-activity” value (rat BASIC [3]) was 1.5 fold.
